Measured values as given in patent publication US8722582B2, “Thermodynamically stable crystal modification of 2-({2-chloro-4-(methylsulfonyl)-3-[(2,2,2-trifluoroethoxy)methyl]phenyl} carbonyl)cyclohexane-1,3-dione” (Bayer Cropscience AG, priority 2007, dated 2014).

Experiments:
[1] = Stability test: storage of an oil dispersion; assay type: physicochemical; conditions: oil dispersion of tembotrione; after several weeks of storage; compared to oil dispersion of crystal modification II, III or a mixture thereof
[2] = Tests in practice of suspension formulations; assay type: physicochemical; conditions: tembotrione finely ground in solid form, spontaneously or over a relatively long period of time
Excerpt: Tembotrione, which is known, for example, from WO 00/21924 (example No. 3 in table 1), has herbicidal properties and is suitable for preparing crop protection compositions used for weed control. […] User-friendly presentation forms are, for example, suspension formulations in which tembotrione is present finely ground in solid form. […] The crystal growth may occur spontaneously or over a relatively long period of time and is unpredictable.

Row | SMILES | signs of agglomeration and precipitation on storage [1] | crystal growth, agglomeration and precipitation in suspension formulation [2]
1 | CS(=O)(=O)c1ccc(C(=O)C2C(=O)CCCC2=O)c(Cl)c1COCC(F)(F)F [crystal modification I, 2-({2-chloro-4-(methylsulfonyl)-3-[(2,2,2-trifluoroethoxy)methyl]phenyl}carbonyl)cyclohexan-1,3-dione] | no signs of agglomeration and precipitation | –
2 | CS(=O)(=O)c1ccc(C(=O)C2C(=O)CCCC2=O)c(Cl)c1COCC(F)(F)F [tembotrione, 2-({2-chloro-4-(methylsulfonyl)-3-[(2,2,2-trifluoroethoxy)methyl]phenyl}carbonyl)cyclohexan-1,3-dione] | – | leads to crystal growth and, as a consequence thereof, to agglomeration and precipitation
